Earlier results as cited in patent US8828412B2, “Stable polyphenol containing ophthalmic emulsion for treating dry eyes” (Abbott Medical Optics Inc., priority 2009, dated 2014).

Conditions: reported; species not stated

COc1cc(/C=C/C(=O)CC(=O)/C=C/c2ccc(O)c(OC)c2)ccc1O [curcumin]
oral bioavailability: about 60%
